Measured values published in ChEMBL document CHEMBL1126389, “Synthesis and anti-HIV activity of 3-deoxy-3-(N-hydroxyamino) analogues of nucleosides” (Bioorg Med Chem Lett, 1992).
Calls of active or inactive are those of the source. The calls are words filed in the database; no cut-off is given here.

Tests used:
[1] = test system: oncovirus; assay: Compound was evaluated for the antiviral activity against model oncovirus SV 40; A - Marginal activity was found; format: functional
[2] = test system: Human immunodeficiency virus 1; assay: Compound was evaluated for the inhibitory activity against HIV-1; IA - Inactive; format: functional, organism-based
[3] = test system: Human immunodeficiency virus 1; assay: Effective concentration against HIV-1 was determined; format: functional, organism-based
[4] = test system: Human immunodeficiency virus 1; assay: Inhibitory concentration against HIV-1 was determined; format: functional, organism-based

| SMILES | Activity [1] | Activity [2] | EC50 [3] | IC50 [4] |
| --- | --- | --- | --- | --- |
| Cc1cn(C2CC(N(O)Cc3ccccc3)C(CO)O2)c(=O)[nH]c1=O (stereo unspecified) | A | inactive |  |  |
| Cc1cn([C@H]2C[C@](C#N)(N(C)O)[C@@H](CO[Si](C)(C)C(C)(C)C)O2)c(=O)[nH]c1=O | A |  |  |  |
| Cc1cn(C2CC3C(COCN3O)O2)c(=O)[nH]c1=O (stereo unspecified) |  |  | 2500 nM | > 210000 nM |
| Cc1cn(C2CC(N(C)O)C(CO)O2)c(=O)[nH]c1=O (stereo unspecified) | A |  |  |  |
